Source: ChEMBL document CHEMBL3227934, “Cardioselectivity of beta-adrenoceptor blocking agents 1. 1-[(4-Hydroxyphenethyl)amino]-3-(aryloxy)propan-2-ols” (J Med Chem, 1979)

Key:
Rattus norvegicus = species on record: Rattus norvegicus; test: Cardio selectivity ratio of Kapp for beta2 adrenergic receptor in rat lung muscle to Kapp for beta1 adrenergic receptor in rat ventricular muscle
[1] = molecular target: Beta-1 adrenergic receptor (Rattus norvegicus) (UniProt P18090)
Description: Displacement of [3H]DHA from beta1 adrenergic receptor in rat ventricular muscle by competitive binding assay

[2] = molecular target: Beta-2 adrenergic receptor (Rattus norvegicus) (UniProt P10608)
Chain of Beta-2 adrenergic receptor (Rattus norvegicus) (P10608 whole entry, looked up): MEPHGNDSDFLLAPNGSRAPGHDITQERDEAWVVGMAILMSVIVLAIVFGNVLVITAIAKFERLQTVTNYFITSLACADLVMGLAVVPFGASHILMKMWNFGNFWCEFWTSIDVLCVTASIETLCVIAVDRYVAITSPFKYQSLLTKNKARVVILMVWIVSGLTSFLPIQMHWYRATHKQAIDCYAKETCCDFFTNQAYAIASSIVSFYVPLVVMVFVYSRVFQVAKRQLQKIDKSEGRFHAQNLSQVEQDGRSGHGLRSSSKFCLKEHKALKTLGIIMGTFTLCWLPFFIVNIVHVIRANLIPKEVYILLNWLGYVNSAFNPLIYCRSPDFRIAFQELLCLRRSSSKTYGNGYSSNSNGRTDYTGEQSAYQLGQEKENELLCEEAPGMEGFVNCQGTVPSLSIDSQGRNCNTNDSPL
Description: Displacement of [3H]DHA from beta2 adrenergic receptor in rat lung muscle by competitive binding assay

Chain of Beta-1 adrenergic receptor (Rattus norvegicus) (P18090 whole entry, looked up): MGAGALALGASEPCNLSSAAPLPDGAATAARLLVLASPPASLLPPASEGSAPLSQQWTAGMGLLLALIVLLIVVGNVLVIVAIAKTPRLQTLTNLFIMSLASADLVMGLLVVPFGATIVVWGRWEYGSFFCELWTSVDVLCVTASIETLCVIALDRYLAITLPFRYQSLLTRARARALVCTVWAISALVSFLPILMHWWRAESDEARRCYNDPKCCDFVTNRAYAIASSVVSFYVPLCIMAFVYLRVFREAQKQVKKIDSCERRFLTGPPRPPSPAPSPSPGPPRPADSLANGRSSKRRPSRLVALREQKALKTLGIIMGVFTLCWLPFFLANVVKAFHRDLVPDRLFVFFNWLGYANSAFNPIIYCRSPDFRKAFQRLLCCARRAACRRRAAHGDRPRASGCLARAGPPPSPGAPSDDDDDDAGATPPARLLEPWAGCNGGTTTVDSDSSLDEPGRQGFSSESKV

CCCCCC(=O)Nc1ccc(OCC(O)CNCCc2ccc(O)cc2)cc1 (centres undefined)
Ratio (Rattus norvegicus): 10 | Kapp [1]: 3.9 µM | Kapp [2]: 39 µM

CCCCCC(=O)Nc1ccc(OCC(O)CNCCc2ccc(OC)c(OC)c2)c(Cl)c1 (centres undefined)
Ratio (Rattus norvegicus): 53 | Kapp [1]: 0.32 µM | Kapp [2]: 17 µM

CC(=O)Nc1ccc(OCC(O)CNC(C)C)cc1 (racemic)
Ratio (Rattus norvegicus): 17 | Kapp [1]: 18 µM | Kapp [2]: 313 µM

COc1ccc(CCNCC(O)COc2ccccc2)cc1OC (centres undefined)
Ratio (Rattus norvegicus): 4.7 | Kapp [1]: 0.38 µM | Kapp [2]: 1.8 µM

CC(C)(C)NCC(O)COc1cccc2c1CCCC2=O (centres undefined)
Ratio (Rattus norvegicus): 1.1 | Kapp [1]: 0.015 µM | Kapp [2]: 0.017 µM

CC(C)NCC(O)COc1ccccc1 (centres undefined)
Ratio (Rattus norvegicus): 1.5 | Kapp [1]: 0.24 µM | Kapp [2]: 0.37 µM

COc1ccc(CCNCC(O)COc2ccc(NC(C)=O)cc2)cc1OC (centres undefined)
Ratio (Rattus norvegicus): 32 | Kapp [1]: 7 µM | Kapp [2]: 224 µM

O=C1CCCc2c(OCC(O)CNCCc3ccc(O)cc3)cccc21 (centres undefined)
Ratio (Rattus norvegicus): 1.5 | Kapp [1]: 0.37 µM | Kapp [2]: 0.56 µM

CC(C)NCC(O)COc1cccc2[nH]ccc12 (racemic)
Kapp [1]: 0.014 µM

Oc1ccc(CCNCC(O)COc2ccccc2)cc1 (centres undefined)
Ratio (Rattus norvegicus): 0.3 | Kapp [1]: 0.7 µM | Kapp [2]: 0.24 µM

CC(=O)Nc1ccc(OCC(O)CNCCc2ccc(O)cc2)cc1 (centres undefined)
Ratio (Rattus norvegicus): 4.9 | Kapp [1]: 18 µM | Kapp [2]: 88 µM

CCCCCC(=O)Nc1ccc(OCC(O)CNCCc2ccc(OC)c(OC)c2)cc1 (centres undefined)
Ratio (Rattus norvegicus): 77 | Kapp [1]: 0.35 µM | Kapp [2]: 27 µM

CCCCCC(=O)Nc1ccc(OCC(O)CNCCc2ccc(O)cc2)c(Cl)c1 (centres undefined)
Ratio (Rattus norvegicus): 5 | Kapp [1]: 2.7 µM | Kapp [2]: 14 µM

CC(=O)Nc1ccccc1OCC(O)CNCCc1ccc(O)cc1 (centres undefined)
Ratio (Rattus norvegicus): 7.6 | Kapp [1]: 2.1 µM | Kapp [2]: 16 µM

C=CCc1ccccc1OCC(O)CNCCc1ccc(O)cc1 (centres undefined)
Ratio (Rattus norvegicus): 1.3 | Kapp [1]: 0.2 µM | Kapp [2]: 0.27 µM

C=CCc1ccccc1OCC(O)CNC(C)C (racemic)
Ratio (Rattus norvegicus): 2.6 | Kapp [1]: 0.0077 µM | Kapp [2]: 0.02 µM

CCCCCC(=O)Nc1ccc(OCC(O)CNC(C)C)cc1 (centres undefined)
Ratio (Rattus norvegicus): 16 | Kapp [1]: 2.2 µM | Kapp [2]: 34 µM
